Reference: patent US5475114A, “Pyrazolotriazole derivatives” (Yamanouchi Pharmaceutical Co., Ltd., priority 1991, dated 1995)
Where a name gives a salt, the structure may show the parent alone.

Legend:
AII receptor [1] = biological target: T1, AII receptor (Oryctolagus cuniculus, UniProt P34976); assay: in vitro: antagonistic effect on AII contraction of an excised rabbit aorta (spiral strip); assay type: cell-based; settings: for IC50: negative log of concentration required to inhibit 50% of the maximum AII contraction, read-out: in vitro (pD2 ' value) (converted); for Kb: negative log of concentration required to shift AII dose-response curve to two times higher concentration, read-out: in vitro (pA2 value) (converted)
T1 construct: A portion of rabbit aorta was excised to prepare a spiral strip specimen; from tissue; host or cells: excised rabbit aorta, spiral strip
T1 sequence (P34976 1-359): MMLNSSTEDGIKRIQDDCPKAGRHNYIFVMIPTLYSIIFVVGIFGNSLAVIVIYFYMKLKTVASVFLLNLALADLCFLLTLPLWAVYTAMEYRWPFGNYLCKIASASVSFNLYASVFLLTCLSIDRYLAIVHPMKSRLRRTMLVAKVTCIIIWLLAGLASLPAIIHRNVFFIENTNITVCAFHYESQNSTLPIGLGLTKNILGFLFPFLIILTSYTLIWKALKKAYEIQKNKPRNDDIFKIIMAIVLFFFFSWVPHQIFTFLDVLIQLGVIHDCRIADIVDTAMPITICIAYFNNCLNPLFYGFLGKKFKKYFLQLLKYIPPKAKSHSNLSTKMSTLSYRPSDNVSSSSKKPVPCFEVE
Procedure: The AII receptor-blocking activity of the compound of the present invention was measured based on its antagonistic effect (in vitro) on AII contraction of an excised rabbit aorta and its inhibitory effect (in vivo) on AII-caused pressor reaction in a spinal cord-broken rat.
A portion of rabbit aorta was excised to prepare a spiral strip specimen which was subsequently hung in Krebs-Hensseleit solution. This spiral strip specimen causes a dose-dependent contraction when AII is added to the Krebs-Hensseleit solution. Since a drug having AII receptor-blocking activity causes shifting of the dose-response curve of the AII-based contraction to the high concentration side or reduces maximum contraction by AII, a shifted width of the dose-response curve before and after the addition of each test drug or a maximum contraction inhibiting ratio was calculated.

AII receptor [2] = assay: in vivo: inhibitory effect on AII-caused pressor reaction in a spinal cord-broken rat; settings: dose which decreases 30 mm Hg of blood pressure after AII administration (100 ng/kg/min continuous iv)
Procedure: The AII receptor-blocking activity of the compound of the present invention was measured based on its antagonistic effect (in vitro) on AII contraction of an excised rabbit aorta and its inhibitory effect (in vivo) on AII-caused pressor reaction in a spinal cord-broken rat. In vivo test: An in vivo test was carried out by inserting cannulae into an aorta and a vein of a spinal cord-broken rat under artificial respiration. […] Since a drug having AII receptor-blocking activity inhibits the AII-caused continuous blood pressure increase in a dose-dependent manner, the AII antagonistic function of the test drug was examined based on the decreasing width of blood pressure after administration of the test drug.

SMILES | IC50 (AII receptor [1]) [nM] | Kb (AII receptor [1]) [nM] | in vivo (IC30 mmHg (mg/kg, iv)) (AII receptor [2]) [mg/kg]
CCc1nc2c(CC)c(C(=O)O)n(Cc3ccc(-c4ccccc4-c4nn[nH]n4)cc3)n2n1 [Example 99, 2,7-diethyl-5-[[2'-(tetrazol-5-yl)biphenyl-4-yl]methyl]-5H-pyrazolo[1,5-b][1,2,4]'triazole-6-carbonic acid] | 0.49 |  | 
CCc1nc2c(CC)c(C(=O)OC)n(Cc3ccc(-c4ccccc4-c4nn[nH]n4)cc3)n2n1 [Example 102, methyl 2,7-diethyl-5-[[2'-(tetrazol-5-yl)biphenyl-4-yl]methyl]-5H-pyrazolo[1,5-b][1,2,4]triazole-6-carboxylate sodium salt] |  | 0.724 | 
CCCCc1nc(Cl)c(CO)n1Cc1ccc(-c2ccccc2-c2nn[nH]n2)cc1 [Dup 753, reference compound] |  |  | 0.1
CCc1nc2c(C(C)C)cn(Cc3ccc(-c4ccccc4-c4nnn[nH]4)cc3)n2n1 [Example 57, 2-ethyl-7-isopropyl-5-[[2'-(tetrazol-5-yl)biphenyl-4-yl]methyl]-5H-pyrazolo[1,5-b][1,2,4]triazole] |  | 3.02 | 0.04
CCc1nc2c(CC)c(COC)n(Cc3ccc(-c4ccccc4-c4nnn[nH]4)cc3)n2n1 [Example 95, 2,7-diethyl-6-methoxymethyl-5-[[2'-(tetrazol-5-yl)biphenyl-4-yl]methyl]-5H-pyrazolo[1,5-b][1,2,4]triazole] |  | 1.41 | 0.06
CCOC(=O)c1c(CC)c2nc(CC)nn2n1Cc1ccc(-c2ccccc2-c2nnn[nH]2)cc1 [Example 101, ethyl 2,7-diethyl-5-[[2'-(tetrazol-5-yl)biphenyl-4-yl]methyl]-5H-pyrazolo[1,5-b][1,2,4] triazole-6-carboxylate] |  | 0.562 | 
CCOC(=O)OC(C)OC(=O)c1c(CC)c2nc(CC)nn2n1Cc1ccc(-c2ccccc2-c2nnn[nH]2)cc1 (stereo not drawn) [Example 105, 1-ethoxycarbonyloxyethyl 2,7-diethyl-5-[[2'-(tetrazol-5-yl)biphenyl-4-yl]methyl]-5H-pyrazolo[1,5-b][1,2,4]triazole-6-carboxylate] | 0.933 |  | 
CCc1nc2c(CC)cn(Cc3ccc(-c4ccccc4-c4nnn[nH]4)cc3)n2n1 [Example 52, 2,7-diethyl-5-[[2'-(tetrazol-5-yl)biphenyl-4-yl]methyl]-5H-pyrazolo[1,5-b][1,2,4]triazole] |  | 2.24 | 0.025
CCc1nc2c(CC)c(C=O)n(Cc3ccc(-c4ccccc4-c4nn[nH]n4)cc3)n2n1 [Example 96, 2,7-diethyl-5-[[2'-(tetrazol-5-yl)biphenyl-4-yl]methyl]-5H-pyrazolo[1,5-b][1,2,4]triazole-6-carboxyaldehyde] |  | 0.692 | 0.02
CCc1nc2c(CC)cn(Cc3ccc(-c4ccccc4-c4nn[nH]n4)cc3)n2n1 [Example 100, 2,7-diethyl-5-[[2'-(tetrazol-5-yl)biphenyl-4-yl]methyl]-5H-pyrazolo[1,5-b][1,2,4]triazole potassium salt] |  | 1.55 | 
CCc1cn(Cc2ccc(-c3ccccc3-c3nnn[nH]3)cc2)n2nc(C)nc12 [Example 53, 7-ethyl-2-methyl-5-[[2'-(tetrazol-5-yl)biphenyl-4-yl]methyl]-5H-pyrazolo[1,5-b][1,2,4]triazole] |  | 3.16 | 0.01
CCc1nc2c(CC)c(CO)n(Cc3ccc(-c4ccccc4-c4nn[nH]n4)cc3)n2n1 [Example 98] |  | 0.955 | 0.02
